Reference: PubChem BioAssay (NCI)
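Dose response: 5 concentrations. Exposure: 48 h. Format: 96-well plates. Endpoint: linear interpolation; highest concentration if not reached. TGI: total growth inhibition.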

Columns and labels:
Test in all cases: inhibition of tumour cell growth, NCI panel, 48 h
786-0 renal = test system: 786-0 renal
A498 renal = test system: A498 renal
A549 NSCLC = test system: A549 NSCLC
ACHN renal = test system: ACHN renal
CAKI-1 renal = test system: CAKI-1 renal
CCRF-CEM leukemia = test system: CCRF-CEM leukemia
COLO 205 colon = test system: COLO 205 colon
DLD-1 colon = test system: DLD-1 colon
DMS 114 small cell lung = test system: DMS 114 small cell lung
DMS 273 small cell lung = test system: DMS 273 small cell lung
EKVX NSCLC = test system: EKVX NSCLC
HCC-2998 colon = test system: HCC-2998 colon
HCT-116 colon = test system: HCT-116 colon
HCT-15 colon = test system: HCT-15 colon
HL-60(TB) leukemia = test system: HL-60(TB) leukemia
HOP-18 NSCLC = test system: HOP-18 NSCLC
HOP-62 NSCLC = test system: HOP-62 NSCLC
HOP-92 NSCLC = test system: HOP-92 NSCLC
HT29 colon = test system: HT29 colon
IGROV1 ovarian = test system: IGROV1 ovarian
K-562 leukemia = test system: K-562 leukemia
KM12 colon = test system: KM12 colon
KM20L2 colon = test system: KM20L2 colon
LOX IMVI melanoma = test system: LOX IMVI melanoma
LXFL 529 NSCLC = test system: LXFL 529 NSCLC
M14 melanoma = test system: M14 melanoma
M19-MEL melanoma = test system: M19-MEL melanoma
MALME-3M melanoma = test system: MALME-3M melanoma
MOLT-4 leukemia = test system: MOLT-4 leukemia
NCI-H226 lung = test system: NCI-H226 lung
NCI-H23 lung = test system: NCI-H23 lung
NCI-H460 lung = test system: NCI-H460 lung
NCI-H522 lung = test system: NCI-H522 lung
OVCAR-3 ovarian = test system: OVCAR-3 ovarian
OVCAR-4 ovarian = test system: OVCAR-4 ovarian
OVCAR-5 ovarian = test system: OVCAR-5 ovarian
OVCAR-8 ovarian = test system: OVCAR-8 ovarian
RXF 393 renal = test system: RXF 393 renal
RXF-631 renal = test system: RXF-631 renal
SF-268 CNS = test system: SF-268 CNS
SF-295 CNS = test system: SF-295 CNS
SF-539 CNS = test system: SF-539 CNS
SK-MEL-2 melanoma = test system: SK-MEL-2 melanoma
SK-MEL-28 melanoma = test system: SK-MEL-28 melanoma
SK-MEL-5 melanoma = test system: SK-MEL-5 melanoma
SK-OV-3 ovarian = test system: SK-OV-3 ovarian
SN12C renal = test system: SN12C renal
SNB-19 CNS = test system: SNB-19 CNS
SNB-75 CNS = test system: SNB-75 CNS
SNB-78 CNS = test system: SNB-78 CNS
SR leukemia = test system: SR leukemia
SW-620 colon = test system: SW-620 colon
TK-10 renal = test system: TK-10 renal
U251 CNS = test system: U251 CNS
UACC-257 melanoma = test system: UACC-257 melanoma
UACC-62 melanoma = test system: UACC-62 melanoma
UO-31 renal = test system: UO-31 renal
RPMI-8226 leukemia = test system: RPMI-8226 leukemia
XF 498 CNS = test system: XF 498 CNS

Measured: TGI

CC(C)(C)C1(O)Cc2ccccc2C(=O)O1 (stereo not given)
not listed: RPMI-8226 leukemia | XF 498 CNS
> 100 µM: all other assays above

c1ccc([P+](Cc2csnn2)(c2ccccc2)c2ccccc2)cc1
not listed: 786-0 renal | K-562 leukemia | RXF-631 renal
> 100 µM: all other assays above

O=C1c2ccccc2-c2cccc3ccc(Cc4ccccc4)c1c23
not listed: A498 renal | CAKI-1 renal | HOP-18 NSCLC | LOX IMVI melanoma | NCI-H226 lung | SK-OV-3 ovarian | SR leukemia
> 100 µM: all other assays above
